The target of this test is T1, TYK2 (Homo sapiens, UniProt P29597).
T1 construct: Degradation of TYK2 in cells was quantitatively measured using Meso Scale Discovery (MSD) technology; endogenous in cells; host or cells: OCI-LY10
Description: TYK2 MSD degradation in OCI-LY10 cells. Format: cell-based. Particulars: TYK2 degradation in OCI-LY10 cells, 4 to 24 hours incubation; for DC50: read-out: TYK2 MSD OCI-LY10 Rel-DC50. An outline of the steps:
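Cellular TYK2 levels were measured by Meso Scale Discovery sandwich detection in RIPA lysates of OCI-LY10 cells exposed 4 to 24 hours at 37° C to nine 1:3 compound doses starting at 1 to 10 μM final; dose-response fitted by four-parameter regression.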

T1 sequence (P29597 whole entry): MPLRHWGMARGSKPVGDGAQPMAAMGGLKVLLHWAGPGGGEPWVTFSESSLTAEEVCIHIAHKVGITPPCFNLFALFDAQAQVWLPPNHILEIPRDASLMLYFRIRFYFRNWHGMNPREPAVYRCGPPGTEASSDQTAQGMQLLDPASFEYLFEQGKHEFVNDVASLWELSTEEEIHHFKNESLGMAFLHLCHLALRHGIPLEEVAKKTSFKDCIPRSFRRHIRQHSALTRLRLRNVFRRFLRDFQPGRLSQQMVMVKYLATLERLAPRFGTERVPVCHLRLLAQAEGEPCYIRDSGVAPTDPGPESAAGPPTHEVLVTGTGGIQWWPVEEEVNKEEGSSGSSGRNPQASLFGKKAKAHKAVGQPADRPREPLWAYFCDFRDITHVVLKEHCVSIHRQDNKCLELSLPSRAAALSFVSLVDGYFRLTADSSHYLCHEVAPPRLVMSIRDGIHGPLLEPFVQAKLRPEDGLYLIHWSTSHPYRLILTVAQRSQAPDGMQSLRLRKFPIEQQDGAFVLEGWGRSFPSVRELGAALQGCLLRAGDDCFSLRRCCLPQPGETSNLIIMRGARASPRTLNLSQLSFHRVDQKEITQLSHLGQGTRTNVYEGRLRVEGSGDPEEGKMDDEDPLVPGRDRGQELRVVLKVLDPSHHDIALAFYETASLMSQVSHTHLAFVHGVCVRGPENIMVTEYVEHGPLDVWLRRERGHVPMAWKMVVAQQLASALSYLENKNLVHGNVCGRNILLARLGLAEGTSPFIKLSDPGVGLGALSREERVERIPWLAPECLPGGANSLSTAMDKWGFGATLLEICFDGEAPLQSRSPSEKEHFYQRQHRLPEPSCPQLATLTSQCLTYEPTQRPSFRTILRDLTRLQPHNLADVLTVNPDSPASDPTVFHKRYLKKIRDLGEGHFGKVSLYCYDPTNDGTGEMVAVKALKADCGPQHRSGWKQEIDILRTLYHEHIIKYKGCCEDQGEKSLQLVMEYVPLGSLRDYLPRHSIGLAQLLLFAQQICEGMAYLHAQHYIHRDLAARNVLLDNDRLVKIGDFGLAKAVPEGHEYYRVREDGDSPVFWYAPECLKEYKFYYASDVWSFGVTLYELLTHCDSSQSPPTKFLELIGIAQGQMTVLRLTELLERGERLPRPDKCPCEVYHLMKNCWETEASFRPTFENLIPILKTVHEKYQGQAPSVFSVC

In the case of `CNc1cc(N2CCc3c(CN4CCC(N5CCC6(CCN(C(=O)c7cc(N8CCC(=O)NC8=O)c(C)cc7Cl)CC6)CC5)C(F)(F)C4)cccc32)nn2c(C(=O)N[C@@H]3C[C@@H]3F)cnc12` (some centres unmarked) [I-845], the “TYK2 MSD OCI-LY10 Dmax %” value was “A (A (>90%))” and the DC50 was less than 1 nM.
Taken in the same sequence, the figures for `CNc1cc(N2CCc3c(C#CCN4CCN(C5CCN(C(=O)c6ccc(Cl)c(N7CCC(=O)NC7=O)c6)CC5(F)F)CC4)cccc32)nn2c(C(=O)NC3CC3F)cnc12` (centres unmarked) [I-846] were “A (A (>90%))” and less than 1 nM.
Turning to `CNc1cc(N2CCc3c(-c4ccc(CN5CCC6(CC5)CN(C(=O)c5ccc(Cl)c(N7CCC(=O)NC7=O)c5)CC6(F)F)cn4)cccc32)nn2c(C(=O)N[C@@H]3C[C@@H]3F)cnc12` [I-847], the “TYK2 MSD OCI-LY10 Dmax %” value was “A (A (>90%))” and the 50% degradation concentration (DC50) is less than 1 nM.
In the same order, the values of `COC1(c2cc(-c3ccc(CN4CCC5(CC4)CCN(C(=O)c4ccc(Cl)c(N6CCC(=O)NC6=O)c4)CC5)cn3)cc(-c3cn(C)c4cnc(NC(C)=O)cc34)n2)CCOC1` (centres unmarked) [I-848] are “A (A (>90%))” and less than 1 nM.
In the same order, the values of `CNc1cc(N2CCc3c(-c4ccc(CN5CC(F)(F)C6(CCN(C(=O)c7ccc(Cl)c(N8CCC(=O)NC8=O)c7)CC6)C5)cn4)cccc32)nn2c(C(=O)N[C@@H]3C[C@@H]3F)cnc12` [I-849] are “B (B (90 to >75%))” and less than 10 nM.
Taken in the same sequence, the figures for `COC1(c2cc(-c3ccc(CN4CC5(CCN(C(=O)c6ccc(Cl)c(N7CCC(=O)NC7=O)c6)CC5)C4)cn3)cc(-c3cn(C)c4cnc(NC(C)=O)cc34)n2)CCOC1` (centres unmarked) [I-850] were “B (B (90 to >75%))” and less than 10 nM.
Consider `CNc1cc(N2CCc3c(-c4ccc(CN5CCC6(CCN(C(=O)c7ccc(Cl)c(N8CCC(=O)NC8=O)c7)CC6)C(F)(F)C5)cn4)cccc32)nn2c(C(=O)NC34CC(C3)C4)cnc12` [I-851], for which the “TYK2 MSD OCI-LY10 Dmax %” value is “C (C (75 to 50%))” and the DC50 was in the range of 10 to 100 nM.
In the same order, the values of `CNc1cc(N2CCc3c(-c4ccc(CN5CC6(CCN(C(=O)c7ccc(Cl)c(N8CCC(=O)NC8=O)c7)CC6(F)F)C5)cn4)cc(C)cc32)nn2c(C(=O)N[C@@H]3C[C@@H]3F)cnc12` [I-852] are “B (B (90 to >75%))” and less than 10 nM.
Consider `CNc1cc(N2CCc3c(CN4CCC(N5CCC6(CCN(C(=O)c7cc(N8CCC(=O)NC8=O)c(C)cc7F)CC6)CC5)C(F)(F)C4)cccc32)nn2c(C(=O)N[C@@H]3C[C@@H]3F)cnc12` (some centres unmarked) [I-853], for which the “TYK2 MSD OCI-LY10 Dmax %” value was “A (A (>90%))” and the DC50 is less than 1 nM.
Taken in the same sequence, the figures for `CNc1cc(N2CCc3c(C#CCN4CCC(N5CCN(C(=O)c6ccc(Cl)c(N7CCC(=O)NC7=O)c6)CC5)C(F)(F)C4)cccc32)nn2c(C(=O)NC3CC3F)cnc12` (centres unmarked) [I-854] were “A (A (>90%))” and less than 1 nM.
Taken in the same sequence, the figures for `CNc1cc(N2CCc3c(CN4CCC(N5CCC6(CC5)CN(C(=O)c5ccc(Cl)c(N7CCC(=O)NC7=O)c5)C6)C(F)(F)C4)cccc32)nn2c(C(=O)N[C@@H]3C[C@@H]3F)cnc12` (some centres unmarked) [I-855] were “A (A (>90%))” and less than 1 nM.
Taken in the same sequence, the figures for `CNc1cc(N2CCc3c(-c4ccc(CN5CC6(CCN(C(=O)c7ccc(Cl)c(N8CCC(=O)NC8=O)c7)CC6(F)F)C5)cn4)cc(C(F)(F)F)cc32)nn2c(C(=O)N[C@@H]3C[C@@H]3F)cnc12` [I-856] were “C (C (75 to 50%))” and 10 to 100 nM.
Take `CNc1cc(N2CCc3c(CN4CCN(C5CCC6(CC5)CCN(C(=O)c5ccc(Cl)c(N7CCC(=O)NC7=O)c5)CC6)CC4)cccc32)nn2c(C(=O)N[C@@H]3C[C@@H]3F)cnc12` [I-857]: the “TYK2 MSD OCI-LY10 Dmax %” value is recorded as “A (A (>90%))” and the DC50 was less than 1 nM.
In the same order, the values of `COC1(c2cc(C)cc(-c3cn(C4CCN(CC5CCN(C(=O)c6ccc(Cl)c(N7CCC(=O)NC7=O)c6)CC5)CC4)c4cnc(NC(C)=O)cc34)n2)CCOC1` (centres unmarked) [I-858] are “D (D (<50%))” and greater than 100 nM.
On to `CNc1cc(N2CCc3c(-c4ccc(CN5CC6(CCN(C(=O)c7ccc(Cl)c(N8CCC(=O)NC8=O)c7)CC6(F)F)C5)cn4)cc(OC)cc32)nn2c(C(=O)N[C@@H]3C[C@@H]3F)cnc12` [I-859], for which the “TYK2 MSD OCI-LY10 Dmax %” value is on record as “B (B (90 to >75%))” and the DC50 was less than 10 nM.
In the same order, the values of `CNc1cc(N2CCc3c(-c4ccc(N5CCC6(CCN(Cc7ccc(N8CCC(=O)NC8=O)c(Cl)c7)CC6)CC5)cn4)cccc32)nn2c(C(=O)N[C@@H]3C[C@@H]3F)cnc12` [I-870] are “C (C (75 to 50%))” and 10 to 100 nM.
In the same order, the values of `CNc1cc(-c2ccc(-c3ccc(CN4CC5(CCN(C(=O)c6ccc(Cl)c(N7CCC(=O)NC7=O)c6)CC5(F)F)C4)cn3)cc2)nn2c(C(=O)N[C@@H]3C[C@@H]3F)cnc12` [I-880] are “B (B (90 to >75%))” and less than 10 nM.
Taken in the same sequence, the figures for `CNc1cc(N2CCc3c(-c4ccc(N5CC6(CCN(Cc7ccc(N8CCC(=O)NC8=O)c(Cl)c7)CC6)C5)cn4)cccc32)nn2c(C(=O)N[C@@H]3C[C@@H]3F)cnc12` [I-881] were “B (B (90 to >75%))” and less than 10 nM.
In the case of `CNc1cc(-c2ccc(N3CCC(CN4CC5(CCN(C(=O)c6ccc(Cl)c(N7CCC(=O)NC7=O)c6)CC5(F)F)C4)CC3)cc2)nn2c(C(=O)N[C@@H]3C[C@@H]3F)cnc12` [I-882], the “TYK2 MSD OCI-LY10 Dmax %” value is on record as “D (D (<50%))” and the 50% degradation concentration (DC50) is greater than 100 nM.
As to `CNc1cc(N2CCc3c(-c4ccc(CN5CC6(CCN(C(=O)c7ccc(Cl)c(N8CCC(=O)NC8=O)c7)CC6(F)F)C5)cn4)cccc32)nn2c(C(=O)N[C@H]3C[C@@H](F)C3)cnc12` [I-883], the “TYK2 MSD OCI-LY10 Dmax %” value is “A (A (>90%))” and the DC50 is less than 1 nM.
As to `CNc1cc(N2CCc3c(-c4ccc(CN5CC6(CCC(=Cc7ccc(Cl)c(N8CCC(=O)NC8=O)c7)CC6)C5)cn4)cccc32)nn2c(C(=O)N[C@@H]3C[C@@H]3F)cnc12` [I-884], the “TYK2 MSD OCI-LY10 Dmax %” value is “C (C (75 to 50%))” and the DC50 was in the range of 10 to 100 nM.
Taken in the same sequence, the figures for `CNc1cc(N2CCc3c(-c4ccc(N5CCC6(CCN(C(=O)c7ccc(N8CCC(=O)NC8=O)c(Cl)c7)CC6)CC5)cn4)cccc32)nn2c(C(=O)N[C@@H]3C[C@@H]3F)cnc12` [I-885] were “C (C (75 to 50%))” and 10 to 100 nM.
As for `CNc1cc(N2CCc3c(-c4ccc(CN5CC6(CCN(C(=O)c7ccc(Cl)c(N8CCC(=O)NC8=O)c7)CC6(F)F)C5)cn4)cccc32)nn2c(C(=O)N[C@H]3C[C@H](OC)C3)cnc12` [I-886], the “TYK2 MSD OCI-LY10 Dmax %” value is given as “B (B (90 to >75%))” and the DC50 is less than 10 nM.
Taken in the same sequence, the figures for `CNc1cc(N2CCc3c(N4CCN(CCC5CC6(CCN(C(=O)c7ccc(Cl)c(N8CCC(=O)NC8=O)c7)CC6)C5)CC4)cccc32)nn2c(C(=O)N[C@@H]3C[C@@H]3F)cnc12` [I-887] were “B (B (90 to >75%))” and less than 10 nM.
`CNc1cc(N2CCc3c(-c4ccc(CN5CC6(CCN(C(=O)c7ccc(Cl)c(N8CCC(=O)NC8=O)c7)CC6(F)F)C5)cn4)cccc32)nn2c(C(=O)N[C@H]3C[C@H](C)C3)cnc12` [I-888]: the “TYK2 MSD OCI-LY10 Dmax %” value is reported as “B (B (90 to >75%))” and the DC50 is less than 10 nM.

The record behind these values is patent publication US20260125400A1, “TYK2 DEGRADERS AND USES THEREOF” (Kymera Therapeutics, Inc., priority 2023, published 2026).
